Laboratory results published in US20100099561A1, “HETEROBICYCLIC ALKYLTHIO-BRIDGED ISOXAZOLINES” (E.I. DU PONT DE NEMOURS AND COMPANY, priority 2008, published 2010).

Columns and labels:
Type in all cases: in vivo
[1] = test system: velvetleaf (Abutilon theophrasti); test: Test A preemergence, velvetleaf; settings: 0 to 100 scale (0 no effect, 100 complete control)
Method in brief: (§1)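 Ratings of 0–100 (0 no effect, 100 complete control) came from visual comparison with untreated controls after roughly ten days in a greenhouse. Plants in loam soil–sand blend were treated with compound in non-phytotoxic solvent plus surfactant, pre- or postemergence (one- to two-leaf stage).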

[2] = test system: giant foxtail (Setaria faberi); test: Test A preemergence, giant foxtail; settings: 0 to 100 scale (0 no effect, 100 complete control)
Method in brief: as §1

[3] = test system: wheat (Triticum aestivum); test: Test A preemergence, wheat; settings: 0 to 100 scale (0 no effect, 100 complete control)
Method in brief: as §1

[4] = test system: giant foxtail (Setaria faberi); test: Test A postemergence, giant foxtail; settings: 0 to 100 scale (0 no effect, 100 complete control)
Method in brief: as §1

[5] = test system: barnyardgrass (Echinochloa crus-galli); test: Test A postemergence, barnyardgrass; settings: 0 to 100 scale (0 no effect, 100 complete control)
Method in brief: as §1

[6] = test system: wheat (Triticum aestivum); test: Test A postemergence, wheat; settings: 0 to 100 scale (0 no effect, 100 complete control)
Method in brief: as §1

[7] = test system: pigweed (Amaranthus retroflexus); test: Test A preemergence, pigweed; settings: 0 to 100 scale (0 no effect, 100 complete control)
Method in brief: as §1

[8] = test system: barnyardgrass (Echinochloa crus-galli); test: Test B flooded paddy test, barnyardgrass; settings: Flood
Method in brief: (§2)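 Compounds were added directly to paddy water over 2-leaf-stage plants in pots flooded 3 cm above soil, water depth maintained. Visual injury scored against controls after 13 to 15 days in greenhouse, 0 (none) to 100 (complete control); dash indicates no result.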

[9] = test system: pigweed (Amaranthus retroflexus); test: Test A postemergence, pigweed; settings: 0 to 100 scale (0 no effect, 100 complete control)
Method in brief: as §1

corn (Zea mays) [10] = test: Test A preemergence, corn; settings: 0 to 100 scale (0 no effect, 100 complete control)
Method in brief: as §1

[11] = test system: barnyardgrass (Echinochloa crus-galli); test: Test A preemergence, barnyardgrass; settings: 0 to 100 scale (0 no effect, 100 complete control)
Method in brief: as §1

[12] = test system: large crabgrass (Digitaria sanguinalis); test: Test A preemergence, large crabgrass; settings: 0 to 100 scale (0 no effect, 100 complete control)
Method in brief: as §1

rice (Oryza sativa) = test: Test B flooded paddy test, rice; settings: Flood, scale 0 to 100
Method in brief: as §2

[13] = test system: morningglory (Ipomoea spp.); test: Test A postemergence, morningglory; settings: 0 to 100 scale (0 no effect, 100 complete control)
Method in brief: as §1

corn (Zea mays) [14] = test: Test A postemergence, corn; settings: 0 to 100 scale (0 no effect, 100 complete control)
Method in brief: as §1

[15] = test system: large crabgrass (Digitaria sanguinalis); test: Test A postemergence, large crabgrass; settings: 0 to 100 scale (0 no effect, 100 complete control)
Method in brief: as §1

[16] = test system: velvetleaf (Abutilon theophrasti); test: Test A postemergence, velvetleaf; settings: 0 to 100 scale (0 no effect, 100 complete control)
Method in brief: as §1

[17] = test system: ducksalad (Heteranthera limosa); test: Test B flooded paddy test, ducksalad; settings: Flood, scale 0 to 100
Method in brief: as §2

[18] = test system: umbrella sedge (Cyperus difformis); test: Test B flooded paddy test, umbrella sedge; settings: Flood, scale 0 to 100
Method in brief: as §2

[19] = test system: morningglory (Ipomoea spp.); test: Test A preemergence, morningglory; settings: 0 to 100 scale (0 no effect, 100 complete control)
Method in brief: as §1

[20] = 250 g ai/ha, scale 0 to 100 (0 no effect, 100 complete control)

SMILES: CC1(C)CC(S(=O)(=O)Cc2c(C(F)(F)F)nc3cnccn3c2=O)=NO1 [Compound 52]
- Plant response rating, Velvetleaf ([1]; 125 g ai/ha): 0
- Plant response rating, Velvetleaf ([1]; 500 g ai/ha): 0
- Plant response rating, Foxtail, Giant ([2]; 125 g ai/ha): 40
- Plant response rating, Foxtail, Giant ([2]; 500 g ai/ha): 90
- Plant response rating, Wheat ([3]; 125 g ai/ha): 0
- Plant response rating, Wheat ([3]; 500 g ai/ha): 0
- Plant response rating, Foxtail, Giant ([4]; 125 g ai/ha): 60
- Plant response rating, Foxtail, Giant ([4]; 500 g ai/ha): 80
- Plant response rating, Barnyardgrass ([5]; 125 g ai/ha): 30
- Plant response rating, Barnyardgrass ([5]; 500 g ai/ha): 90
- Plant response rating, Wheat ([6]; 125 g ai/ha): 0
- Plant response rating, Wheat ([6]; 500 g ai/ha): 30
- Plant response rating, Pigweed ([7]; 125 g ai/ha): 0
- Plant response rating, Pigweed ([7]; 500 g ai/ha): 0
- Plant response rating, Barnyardgrass ([8]; 62 g ai/ha, scale 0 to 100): 0
- Plant response rating, Barnyardgrass [8, 20]: 0
- Plant response rating, Pigweed ([9]; 125 g ai/ha): 0
- Plant response rating, Pigweed ([9]; 500 g ai/ha): 0
- Plant response rating, Corn (corn (Zea mays) [10]; 125 g ai/ha): 0
- Plant response rating, Corn (corn (Zea mays) [10]; 500 g ai/ha): 0
- Plant response rating, Barnyardgrass ([11]; 125 g ai/ha): 20
- Plant response rating, Barnyardgrass ([11]; 500 g ai/ha): 80
- Plant response rating, Crabgrass, Large ([12]; 125 g ai/ha): 20
- Plant response rating, Crabgrass, Large ([12]; 500 g ai/ha): 80
- Plant response rating, Rice (rice (Oryza sativa); 62 g ai/ha): 0
- Plant response rating, Rice (rice (Oryza sativa); 250 g ai/ha): 0
- Plant response rating, Morningglory ([13]; 125 g ai/ha): 0
- Plant response rating, Morningglory ([13]; 500 g ai/ha): 30
- Plant response rating, Corn (corn (Zea mays) [14]; 125 g ai/ha): 0
- Plant response rating, Corn (corn (Zea mays) [14]; 500 g ai/ha): 0
- Plant response rating, Crabgrass, Large ([15]; 125 g ai/ha): 20
- Plant response rating, Crabgrass, Large ([15]; 500 g ai/ha): 50
- Plant response rating, Velvetleaf ([16]; 125 g ai/ha): 0
- Plant response rating, Velvetleaf ([16]; 500 g ai/ha): 0
- Plant response rating, Ducksalad ([17]; 62 g ai/ha): 0
- Plant response rating, Ducksalad ([17]; 250 g ai/ha): 0
- Plant response rating, Sedge, Umbrella ([18]; 62 g ai/ha): 0
- Plant response rating, Sedge, Umbrella ([18]; 250 g ai/ha): 0
- Plant response rating, Morningglory ([19]; 125 g ai/ha): 0
- Plant response rating, Morningglory ([19]; 500 g ai/ha): 0

SMILES: Cc1cc2nc(C(F)(F)F)c(CS(=O)(=O)C3=NOC(C)(C)C3)c(=O)n2o1 [Compound 53]
- Plant response rating, Velvetleaf ([1]; 125 g ai/ha): 0
- Plant response rating, Velvetleaf ([1]; 500 g ai/ha): 0
- Plant response rating, Foxtail, Giant ([2]; 125 g ai/ha): 30
- Plant response rating, Foxtail, Giant ([2]; 500 g ai/ha): 90
- Plant response rating, Wheat ([3]; 125 g ai/ha): 0
- Plant response rating, Wheat ([3]; 500 g ai/ha): 0
- Plant response rating, Foxtail, Giant ([4]; 125 g ai/ha): 60
- Plant response rating, Foxtail, Giant ([4]; 500 g ai/ha): 80
- Plant response rating, Barnyardgrass ([5]; 125 g ai/ha): 50
- Plant response rating, Barnyardgrass ([5]; 500 g ai/ha): 90
- Plant response rating, Wheat ([6]; 125 g ai/ha): 0
- Plant response rating, Wheat ([6]; 500 g ai/ha): 20
- Plant response rating, Pigweed ([7]; 125 g ai/ha): 0
- Plant response rating, Pigweed ([7]; 500 g ai/ha): 0
- Plant response rating, Barnyardgrass ([8]; 62 g ai/ha, scale 0 to 100): 0
- Plant response rating, Barnyardgrass [8, 20]: 0
- Plant response rating, Pigweed ([9]; 125 g ai/ha): 0
- Plant response rating, Pigweed ([9]; 500 g ai/ha): 0
- Plant response rating, Corn (corn (Zea mays) [10]; 125 g ai/ha): 0
- Plant response rating, Corn (corn (Zea mays) [10]; 500 g ai/ha): 0
- Plant response rating, Barnyardgrass ([11]; 125 g ai/ha): 30
- Plant response rating, Barnyardgrass ([11]; 500 g ai/ha): 90
- Plant response rating, Crabgrass, Large ([12]; 125 g ai/ha): 30
- Plant response rating, Crabgrass, Large ([12]; 500 g ai/ha): 90
- Plant response rating, Rice (rice (Oryza sativa); 62 g ai/ha): 0
- Plant response rating, Rice (rice (Oryza sativa); 250 g ai/ha): 0
- Plant response rating, Morningglory ([13]; 125 g ai/ha): 0
- Plant response rating, Morningglory ([13]; 500 g ai/ha): 10
- Plant response rating, Corn (corn (Zea mays) [14]; 125 g ai/ha): 0
- Plant response rating, Corn (corn (Zea mays) [14]; 500 g ai/ha): 0
- Plant response rating, Crabgrass, Large ([15]; 125 g ai/ha): 30
- Plant response rating, Crabgrass, Large ([15]; 500 g ai/ha): 80
- Plant response rating, Velvetleaf ([16]; 125 g ai/ha): 0
- Plant response rating, Velvetleaf ([16]; 500 g ai/ha): 0
- Plant response rating, Ducksalad ([17]; 62 g ai/ha): 0
- Plant response rating, Ducksalad ([17]; 250 g ai/ha): 0
- Plant response rating, Sedge, Umbrella ([18]; 62 g ai/ha): 0
- Plant response rating, Sedge, Umbrella ([18]; 250 g ai/ha): 0
- Plant response rating, Morningglory ([19]; 125 g ai/ha): 0

SMILES: CC1(C)CC([S+]([O-])Cc2c(C(F)(F)F)nc3cnccn3c2=O)=NO1 (centres unmarked) [Compound 54]
- Plant response rating, Velvetleaf ([1]; 125 g ai/ha): 0
- Plant response rating, Velvetleaf ([1]; 500 g ai/ha): 0
- Plant response rating, Foxtail, Giant ([2]; 125 g ai/ha): 0
- Plant response rating, Foxtail, Giant ([2]; 500 g ai/ha): 0
- Plant response rating, Wheat ([3]; 125 g ai/ha): 0
- Plant response rating, Wheat ([3]; 500 g ai/ha): 0
- Plant response rating, Foxtail, Giant ([4]; 125 g ai/ha): 0
- Plant response rating, Foxtail, Giant ([4]; 500 g ai/ha): 50
- Plant response rating, Barnyardgrass ([5]; 125 g ai/ha): 0
- Plant response rating, Barnyardgrass ([5]; 500 g ai/ha): 0
- Plant response rating, Wheat ([6]; 125 g ai/ha): 0
- Plant response rating, Wheat ([6]; 500 g ai/ha): 0
- Plant response rating, Pigweed ([7]; 125 g ai/ha): 0
- Plant response rating, Pigweed ([7]; 500 g ai/ha): 0
- Plant response rating, Barnyardgrass ([8]; 62 g ai/ha, scale 0 to 100): 0
- Plant response rating, Barnyardgrass [8, 20]: 0
- Plant response rating, Pigweed ([9]; 125 g ai/ha): 0
- Plant response rating, Pigweed ([9]; 500 g ai/ha): 0
- Plant response rating, Corn (corn (Zea mays) [10]; 125 g ai/ha): 0
- Plant response rating, Corn (corn (Zea mays) [10]; 500 g ai/ha): 0
- Plant response rating, Barnyardgrass ([11]; 125 g ai/ha): 0
- Plant response rating, Barnyardgrass ([11]; 500 g ai/ha): 0
- Plant response rating, Crabgrass, Large ([12]; 125 g ai/ha): 0
- Plant response rating, Crabgrass, Large ([12]; 500 g ai/ha): 0
- Plant response rating, Rice (rice (Oryza sativa); 62 g ai/ha): 0
- Plant response rating, Rice (rice (Oryza sativa); 250 g ai/ha): 0
- Plant response rating, Morningglory ([13]; 125 g ai/ha): 0
- Plant response rating, Morningglory ([13]; 500 g ai/ha): 10
- Plant response rating, Corn (corn (Zea mays) [14]; 125 g ai/ha): 0
- Plant response rating, Corn (corn (Zea mays) [14]; 500 g ai/ha): 0
- Plant response rating, Crabgrass, Large ([15]; 125 g ai/ha): 0
- Plant response rating, Crabgrass, Large ([15]; 500 g ai/ha): 20
- Plant response rating, Velvetleaf ([16]; 125 g ai/ha): 0
- Plant response rating, Velvetleaf ([16]; 500 g ai/ha): 0
- Plant response rating, Ducksalad ([17]; 62 g ai/ha): 0
- Plant response rating, Ducksalad ([17]; 250 g ai/ha): 0
- Plant response rating, Sedge, Umbrella ([18]; 62 g ai/ha): 0
- Plant response rating, Sedge, Umbrella ([18]; 250 g ai/ha): 0
- Plant response rating, Morningglory ([19]; 125 g ai/ha): 0
- Plant response rating, Morningglory ([19]; 500 g ai/ha): 0
